Laboratory results taken from patent US20240208909A1, “SUBSTITUTED QUINOLINE DERIVATIVES HAVING SOS1 INHIBITION ACTIVITIES AND USES THEREOF” (Accutar Biotechnology Inc., priority 2022, published 2024).

Columns and labels:
SOS1/KRAS-G12D = SOS1/KRAS-G12D (Homo sapiens (Human), UniProt Q07889); test: SOS1/KRAS-G12D binding inhibition assay (AlphaScreen); conditions: GST-SOS1 and 6*His KRAS-G12D, read-out: KrasG12D/SOS1 binding IC50
Method in brief: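 GST-SOS1 (5 nM) pre-incubated 30 min with His6-KRAS-G12D (50 nM) in HEPES pH 7.4, NaCl, DTT, MgCl2, Tween-20, BSA; compound in 2% DMSO then added for 30 min at 4° C. GSH donor and Ni-NTA acceptor AlphaScreen beads, 2 h at 4° C; background-corrected % inhibition versus DMSO, IC50 by variable-slope nonlinear regression.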

[1] = tested on: Phospho-ERK1/2 in DLD1 cells; test: Phospho-ERK1/2 expression inhibition in DLD1 cells; type: cell-based; conditions: Homo sapiens, DLD-1, 4 hours, read-out: DLD1 pERK IC50
Method in brief: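 DLD1 cells (15,000/well) were plated overnight, then exposed to compounds for 4 h at 37 °C. Cells were formaldehyde-fixed and methanol-permeabilized. Phospho-ERK1/2 was detected in-cell with rabbit anti-phospho-ERK1/2 and an IRDye 800CW secondary antibody, imaged on a LI-COR Odyssey.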

K562 cells = test: Cell growth inhibition of K562 cells (CellTiter-Glo); type: cell-based; conditions: Homo sapiens, 120 h, 5 days

Chain of SOS1/KRAS-G12D (Q07889 564-1049 limits assumed): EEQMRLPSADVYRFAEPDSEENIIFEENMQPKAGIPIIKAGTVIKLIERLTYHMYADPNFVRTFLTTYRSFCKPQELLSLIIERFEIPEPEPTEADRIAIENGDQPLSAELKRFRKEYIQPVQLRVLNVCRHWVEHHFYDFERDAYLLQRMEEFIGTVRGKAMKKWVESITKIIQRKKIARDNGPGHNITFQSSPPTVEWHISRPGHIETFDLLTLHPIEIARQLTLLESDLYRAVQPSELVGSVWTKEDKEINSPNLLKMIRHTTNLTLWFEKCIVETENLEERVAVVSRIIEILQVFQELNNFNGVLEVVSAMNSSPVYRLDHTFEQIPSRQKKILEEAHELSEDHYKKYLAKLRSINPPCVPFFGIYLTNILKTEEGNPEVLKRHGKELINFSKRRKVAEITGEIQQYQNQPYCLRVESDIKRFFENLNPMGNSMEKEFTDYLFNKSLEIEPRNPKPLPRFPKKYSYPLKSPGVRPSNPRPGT

SMILES	IC50 (SOS1/KRAS-G12D) [nM]	IC50 [1] [nM]	GI50 (K562 cells) [nM]
C[C@@H](Nc1ccnc2ccc(N3CCC(N)CC3)cc12)c1cccc(C(F)F)c1F [Compound 49, (R)-6-(4-aminopiperidin-1-yl)-N-(1-(3-(difluoromethyl)-2-fluorophenyl)ethyl)quinolin-4-amine]	≤ 10	> 500	100 to 500
Cc1c([C@@H](C)Nc2ccnc3ccc(N4CCCNCC4)cc23)cccc1C(F)(F)F [Compound 63, (R)-6-(1,4-diazepan-1-yl)-N-(1-(2-methyl-3-(trifluoromethyl)phenyl)ethyl)quinolin-4-amine]	10 to 100	> 500	> 500
C[C@@H](Nc1ccnc2ccc(C3CCNCC3)cc12)c1cccc(C(F)F)c1F [Compound 10, (R)-N-(1-(3-(difluoromethyl)-2-fluorophenyl)ethyl)-6-(piperidin-4-yl)quinolin-4-amine]	10 to 100	> 500	100 to 500
COC1(c2ccc3nccc(N[C@H](C)c4cccc(C(F)(F)F)c4C)c3c2)CCN(C(=O)CF)CC1 [Compound 78, (R)-2-fluoro-1-(4-methoxy-4-(4-((1-(2-methyl-3-(trifluoromethyl)phenyl)ethyl)amino)quinolin-6-yl)piperidin-1-yl)ethan-1-one]	≤ 10	150 to 500	≤ 100
CO[C@]1(c2ccc3nccc(N[C@H](C)c4cccc(C(F)F)c4F)c3c2)CCN(C(=O)C(C)C)C1 [Compound 92, 1-((S)-3-(4-(((R)-1-(3-(difluoromethyl)-2-fluorophenyl)ethyl)amino)quinolin-6-yl)-3-methoxypyrrolidin-1-yl)-2-methylpropan-1-one]	≤ 10	≤ 150	≤ 100
Cc1cc(N[C@H](C)c2cccc(C(F)(F)F)c2C)c2cc(N3CCN(C(=O)C4CCOC4)CC3)ccc2n1 (stereo partly drawn) [Compound 4, (4-(2-methyl-4-(((R)-1-(2-methyl-3-(trifluoromethyl)phenyl)ethyl)amino)quinolin-6-yl)piperazin-1-yl)(tetrahydrofuran-3-yl)methanone]	10 to 100	> 500	100 to 500
CO[C@]1(c2ccc3nccc(N[C@H](C)c4cccc(C(F)F)c4F)c3c2)CCN(C(=O)C2CC2)C1 [Compound 96, cyclopropyl((S)-3-(4-(((R)-1-(3-(difluoromethyl)-2-fluorophenyl)ethyl)amino)quinolin-6-yl)-3-methoxypyrrolidin-1-yl)methanone]	≤ 10	150 to 500	≤ 100
C[C@@H](Nc1ccnc2ccc(N3CCN(C(=O)[C@@H]4CCOC4)CC3)cc12)c1cccc(C(F)F)c1F [Compound 15, (4-(4-(((R)-1-(3-(difluoromethyl)-2-fluorophenyl)ethyl)amino)quinolin-6-yl)piperazin-1-yl)((R)-tetrahydrofuran-3-yl)methanone]	≤ 10	≤ 150	100 to 500
Cc1c([C@@H](C)Nc2ccnc3ccc(N4CCN(C(=O)C5CC5)CC4)cc23)cccc1C(F)(F)F [Compound 26, (R)-cyclopropyl(4-(4-((1-(2-methyl-3-(trifluoromethyl)phenyl)ethyl)amino)quinolin-6-yl)piperazin-1-yl)methanone]	10 to 100	> 500	100 to 500
COC1(c2ccc3nccc(N[C@H](C)c4cccc(C(F)(F)F)c4C)c3c2)CCN(C(C)=O)CC1 [Compound 79, (R)-1-(4-methoxy-4-(4-((1-(2-methyl-3-(trifluoromethyl)phenyl)ethyl)amino)quinolin-6-yl)piperidin-1-yl)ethan-1-one]	10 to 100	150 to 500	100 to 500
CC(=O)N1CCN(c2ccc3nccc(N[C@H](C)c4cccc(C(F)(F)F)c4C)c3c2)CC12CC2 [Compound 70, (R)-1-(7-(4-((1-(2-methyl-3-(trifluoromethyl)phenyl)ethyl)amino)quinolin-6-yl)-4,7-diazaspiro[2.5]octan-4-yl)ethan-1-one]	10 to 100	> 500	100 to 500
CC(=O)N1CCN(c2ccc3nccc(N[C@H](C)c4cccc(C(F)(F)F)c4C)c3c2)[C@@H](C)C1 [Compound 61, 1-((S)-3-methyl-4-(4-(((R)-1-(2-methyl-3-(trifluoromethyl)phenyl)ethyl)amino)quinolin-6-yl)piperazin-1-yl)ethan-1-one]	> 100	> 500	> 500
Cc1c([C@@H](C)Nc2ccnc3ccc(N4C[C@@H](C)NC[C@@H]4C)cc23)cccc1C(F)(F)F [Compound 56, 6-((2S,5R)-2,5-dimethylpiperazin-1-yl)-N-((R)-1-(2-methyl-3-(trifluoromethyl)phenyl)ethyl)quinolin-4-amine]	10 to 100	> 500	100 to 500
COc1cc2nccc(N[C@H](C)c3cccc(C(F)(F)F)c3C)c2cc1N1CCN(C(=O)C2COC2)CC1 [Compound 47]	10 to 100	> 500	100 to 500
Cc1c([C@@H](C)Nc2ccnc3ccc(N4CCC5(CCN(C)C5=O)CC4)cc23)cccc1C(F)(F)F [Compound 23, (R)-2-methyl-8-(4-((1-(2-methyl-3-(trifluoromethyl)phenyl)ethyl)amino)quinolin-6-yl)-2,8-diazaspiro[4.5]decan-1-one]	10 to 100	> 500	100 to 500
Cc1c([C@@H](C)Nc2ccnc3ccc(N4CCN(c5nccs5)CC4)cc23)cccc1C(F)(F)F [Compound 34, (R)-N-(1-(2-methyl-3-(trifluoromethyl)phenyl)ethyl)-6-(4-(thiazol-2-yl)piperazin-1-yl)quinolin-4-amine]	> 100	> 500	100 to 500
C[C@@H](Nc1ccnc2ccc(N3CC[C@H](O)C3)cc12)c1cccc(C(F)F)c1F [Compound 43, (S)-1-(4-(((R)-1-(3-(difluoromethyl)-2-fluorophenyl)ethyl)amino)quinolin-6-yl)pyrrolidin-3-ol]	≤ 10	150 to 500	100 to 500
Cc1c([C@@H](C)Nc2ccnc3ccc(C4(F)CCN(C(=O)C(C)C)CC4)cc23)cccc1C(F)(F)F [Compound 82, (R)-1-(4-fluoro-4-(4-((1-(2-methyl-3-(trifluoromethyl)phenyl)ethyl)amino)quinolin-6-yl)piperidin-1-yl)-2-methylpropan-1-one]	> 100	> 500	100 to 500
